According to patent US9422363B2, “Synthetic apolipoprotein E mimicking polypeptides and methods of use” (UAB RESEARCH FOUNDATION, priority 2007, dated 2016):

Experiments:
[1] = test system: 1% cholesterol fed NZW-rabbits; test: Plasma cholesterol in high fat (1% cholesterol) diet rabbits; assay type: in vivo, rabbit; settings: intravenously two times; end of 14 days (21 days after initiation of atherogenic diet); n=4; control about 2000 mg/dl
[2] = test system: 1% cholesterol fed NZW-rabbits; test: Plasma turbidity and aortic atherosclerosis (en face Oil Red O) in 1% cholesterol fed NZW rabbits; assay type: in vivo, rabbit
Procedure: In another set of experiments it was noted that Ac-hE18A-NH2 clears the plasma turbidity in 1% cholesterol fed NZW-rabbits. 3 mg/kg of peptide was administered intravenously/week. The rabbits were sacrificed after 51 days from the start of diet. Aortas were harvested and en face analysis was done on Oil Red O stained tissue samples. […] This was associated with decrease in atherogenic lipoproteins and inhibition of atherosclerosis at day 51.

WHHL rabbits [3] = test: Ac-hE18A-NH2 in WHHL rabbits: plasma PON, lipid hydroperoxides, cholesterol, endothelial function; assay type: in vivo, rabbit; settings: plasma of WHHL rabbits; p<0.05; FIG. 1
Excerpt: These rabbits have defective LDL receptors and therefore have increased atherogenic lipoproteins (mainly LDL). […] This was associated with improved aortic endothelial function. This improvement in endothelial function was mediated in part by increase in PON activity with associated decrease in plasma lipid hydroperoxide (FIG. 1). […] PON is an anti-oxidant enzyme associated with HDL and is responsible for scavenging LOOH in plasma. The lipid lowering effects of Ac-hE18A-NH2 in 1% cholesterol fed NZW-rabbits have also been shown. These animals have elevated cholesterol that are rich in VLDL type of particles.

ZDF (fa/fa) rats = test: Onset and progression of DM-2 in male ZDF (fa/fa) rats: fasting plasma glucose, insulin, adiponectin; assay type: in vivo, rat
Procedure: This example outlies studies carried out for the evaluation of the effects of these peptides in the prevention of onset and progression of DM-2. […] Baseline fasting plasma was collected prior to peptide administration. Biweekly injections (6 for Ac-hE18A-NH2 group and 5 for L-4F group were administered before day 18). From day 18-day 33, no additional peptide/vehicle injection were performed. […] (B) Corresponding insulin levels are depicted in the control and Ac-hE18A-NH2 group only. Control animals become relatively insulin resistant at day 18 as depicted by hyperinsulinemia and hyperglycemia. […] Data are expressed as Mean±SEM; *p<0.05.
Relatively infrequent injections (biweekly) of the peptides as compared to vehicle were able to improve glucose homeostasis in the ZDF rats. Form the studies it was determined that adiponectin levels in the peptide treated animals were much higher than in controls at day 33 (5.7±1 vs. […], p<0.05). […] Adiponectin also prevents the production and action of pro-inflammatory TNF-α and IL-6 and induces anti-inflammatory cytokine IL-10 and IL-1 receptor antagonist. A summary of the potential effects of the peptides on liver, pancreas, peripheral tissue, blood and blood vessel are depicted in FIG. 5.

WHHL rabbits [4] = settings: single administration; cited from earlier work
[5] = 1% cholesterol fed NZW rabbits, 3 mg/kg i.v./week, day 51
[6] = 5 mg/kg i.v. biweekly, day 18, versus control
[7] = day 33, no additional peptide after day 18

In the case of “Ac-LRKLRKRLLRDWLKAFYDKVAEKLKEAF-NH2 [Ac-hE18A-NH2]”, the plasma cholesterol levels [1] is reported as roughly 1000 mg/dL, the atherogenic lipoproteins [2, 5] is reported as “decrease” and the “atherosclerosis (en face analysis of Oil Red O stained aortas)” value [2, 5] is reported as “inhibits”. For the same substance, the plasma turbidity ([2]; 1% cholesterol fed NZW-rabbits, 3 mg/kg intravenously/week) was “clears”, the “HDL associated Paraoxonase (PON) activity” value (WHHL rabbits [3]) was “increase” and the “lipid hydroperoxides (LOOH)” value (WHHL rabbits [3]) was “decrease”. For the same substance, the fasting plasma glucose (ZDF (fa/fa) rats; 5 mg/kg i.v. biweekly until day 18, day 18 and day 33, versus control) was “only mild increase”, the plasma glucose levels (ZDF (fa/fa) rats; 5 mg/kg i.v. biweekly, day 18) was “normal” and the insulin resistance (ZDF (fa/fa) rats; [6]) was “much less”. For the same substance, the plasma insulin levels (ZDF (fa/fa) rats; [6]) was “lower”, the beta cell function (ZDF (fa/fa) rats; day 18 to day 33, no additional peptide) was “relatively preserved” and the plasma glucose (ZDF (fa/fa) rats; [7]) was “milder increase”. For the same substance, the plasma insulin (ZDF (fa/fa) rats; [7]) was “increase”, the LDL cholesterol (WHHL rabbits [4]) was “dramatic decrease” and the aortic endothelial function (WHHL rabbits [4]) was “improved”. For the same substance, the total cholesterol (WHHL rabbits [4]) was “dramatic decrease”.
